pIC50: −log10 of the molar value.
Legend:
Crithidia fasciculata = test: Antitrypanosomal activity against Crithidia fasciculata; type: functional, organism-based
Leptomonas seymouri = test: Antitrypanosomal activity against Leptomonas seymouri; type: functional, organism-based
[1] = Oxidation of dithiothreitol assessed as oxygen consumption at 50 uM; type: physicochemical
[2] = Oxidation of dihydrolipoamide assessed as oxygen consumption at 50 uM; type: physicochemical

Activity [1]	Activity [2]	Compound	pIC50 (Crithidia fasciculata)	pIC50 (Leptomonas seymouri)
315 µM/min	990 µM/min	CC1(c2ccccc2)CCC2=C(O1)c1ccccc1C(=O)C2=O (centres undefined)	6.15	6.15
208 µM/min	733 µM/min	CCC1(C)CCC2=C(O1)c1ccccc1C(=O)C2=O (centres undefined)	6.10	6.52
470 µM/min	879 µM/min	CC1(C)CCC2=C(O1)c1cc(Cl)ccc1C(=O)C2=O	6.10	6.40
1 µM/min	7 µM/min	CC1(C)CCC2=C(O1)C(=O)c1ccccc1C2=O [ALPHA-LAPACHONE]	4.57	5.39
238 µM/min	808 µM/min	CC1(C)CCC2=C(O1)c1ccccc1C(=O)C2=O [LAPACHONE]	–	6.40

The next lines start with the molecule.

Compound	Activity [1]	Activity [2]	pIC50 (Crithidia fasciculata)	pIC50 (Leptomonas seymouri)
CC1=Cc2c(C(C)C)ccc(C)c2C(=O)C1=O	–	434 µM/min	5.22	5.40
CC1=CC2=C(C(=O)C1=O)C(C)CCC2C(C)C (centres undefined) [MANSONONE A]	37 µM/min	26 µM/min	4.82	5.07
CC1=C2OCC(C)c3ccc(C)c(c32)C(=O)C1=O (centres undefined) [MANSONONE E]	66 µM/min	276 µM/min	6.22	6.40
CC1=COC2=C(C)C(=O)C(=O)c3c(C)ccc1c32 [MANSONONE F]	14 µM/min	58 µM/min	6.52	7.00
